According to a melting point compilation (Tetko et al.; mined from patent text by program, amines drawn as free bases though some values may be those of a salt):
Non-standard residues stand in square brackets, D forms with d. Residues, ends and D or L forms follow the SMILES beside them. *: point of attachment. NHPhenethyl = c1ccc(CCN*)cc1; pGlu = O=C1CC[CH](C(=O)O)N1

| melting point [°C] | Structure (SMILES) |
| --- | --- |
| 188 | Cc1cc2c(cc1C(F)(F)F)NC(=O)CC(c1cccc(-c3ccnc(CN(C)CC(C)C)c3)c1)=N2 |
| 160 | Cc1cccc(NC(=O)NCC(=O)N(CC(=O)OC(C)(C)C)c2ccccc2C(=O)N2CCCc3ccccc32)c1 |
| 115 to 117 | CSC(C#N)NC(=O)c1cccc(Cl)c1 (configuration not stated) |
| 95 | OCC1CN(Cc2ccccc2)CCc2c1[nH]c1ccccc21 (configuration not stated) |
| 185 to 187 | Oc1ccc2nc(-c3cccc4ccccc34)oc2c1 |
| 163 | Clc1cc2c(cc1Cn1ccnc1-c1ccccc1)OCO2 |
| 183 to 184 | CC(C)n1nc(-c2sc(NC(=O)c3cccc(F)c3)nc2-c2ccccc2)ccc1=O |
| 234 to 236 | CN(C(=O)CCCOc1ccc2nc3[nH]c(=O)n(C)c3cc2c1)C1CCCCCC1 |
| 160 to 162 | CCN1C(=O)C(C(=O)Nc2ccc(F)cc2)c2cc3c(cc21)CC(C)(C)O3 (configuration not stated) |
| > 300 | O=c1[nH]c2cc(-n3cnc4ccccc43)c([N+](=O)[O-])cc2[nH]c1=O |
| 264 to 266 | Cc1c(C(=O)Nc2ccc(-c3ccc(S(=O)(=O)NC(C(=O)O)C(C)C)cc3)cc2)oc2ccccc12 (configuration not stated) |
| 114 to 115 | Cc1cc(Br)cnc1CCCCn1nnc2cc(Cc3cccnc3)cnc21 |
| 182 to 185 | C[C@H](CN1CC(F)C1)NC(=O)c1c[nH]c2ncc(-c3nn(C)c4cc(Cl)ccc34)nc12 |
| 135 to 138 | COC(=O)c1cnc(N2CCN(Cc3ccccc3)CC2)nc1OC |
| 174 to 175 | CCOC(=O)c1[nH]c2cc(Cl)cc(Cl)c2c1N(Cc1ccccc1)C(=O)c1ccccc1 |
| 175 to 178 | O=C(Nc1cccc(Cc2ccccc2)c1)N1CCc2c(cnc3[nH]ncc23)C1 |
| 165 to 170 | COc1cc(Nc2nc3cccc(-c4cccnc4)c3o2)cc(OC)c1OC |
| 178 to 180 | CC(=O)c1ccc(-c2ccnc(Nc3ccc4c(c3)OCCO4)c2)cc1 |
| 201 to 204 | COc1ccc(/C=C/C2=CCN(Cc3c[nH]c4ncccc34)CC2)cc1 |
| 247 to 248 | CCc1ccc2c(C3=C(c4cn(C)c5ccccc45)C(=O)NC3=O)cn(C)c2c1 |
| 240 to 241 | CNc1nnc(-c2ccc3occ(-c4ccc(S(C)=O)cc4)c3c2)o1 (configuration not stated) |
| 114 | CCOCCc1c(-c2ccccc2)n2nnnc2n2ncnc12 |
| 173 | O=C(NC(=O)c1ccccc1F)Nc1ccc(F)c(C(F)(F)F)c1Cl |
| 212 to 213 | C[C@@H](n1cnc2cc(F)c(F)cc2c1=O)[C@](O)(Cn1cncn1)c1ccc(F)cc1F |
| 161 | CC(O)C(CCCc1ccccc1)n1ncc2c(=O)[nH]c(Cc3ccc(Cl)c(Cl)c3)nc21 (configuration not stated) |
| 227 to 228 | Nc1cc(Cc2n[nH]c(=O)c3ccccc23)ccc1Cl |
| 69 to 71 | CC(C)c1nc(COC2=CCCCC2)n(C)c1Sc1cc(Cl)cc(Cl)c1 |

| melting point [°C] | Structure (SMILES) |
| --- | --- |
| 198 to 201 | O=c1c(NCCCN(Cc2ccc(F)cc2)c2ccccn2)c(NCc2ccncc2)c1=O |
| 61 to 62 | Cn1nc(-c2ccccc2)cc1Cl |
| 139 to 140 | CCCCOc1c(CNC(=O)OC(C)(C)C)n(CC2CC2)c(=O)c2ccc(C(=O)OC)cc12 |
| 101 to 103 | CCCOc1c(C)cc(Cl)c2c(=O)c3ccccc3sc12 |
| 256 to 258 | CCOC(=O)c1cc2c([nH]c3ccccc32)c(CNc2ccccc2)n1 |
| 242 to 244 | O=C(c1ccc(-c2ccncc2)cc1)N1CCN(S(=O)(=O)c2nc3ccc(Cl)cc3[nH]2)CC1 |
| 44 to 45 | CO[C@@H]1CN(Cc2ccccc2)C[C@H]1NC(=O)OC(C)(C)C |
| 194 to 196 | COc1cccc(OC)c1CNC(=O)Cc1c(-c2ccccc2C)c2cc(Cl)ccc2oc1=O |
| 151 to 153 | CCCC(=O)c1cnc2c(OC)cccc2c1Nc1c(C)cc(O)c(O)c1C |
| 185 to 186 | CC(C)Sc1cccc(-c2nc(=O)c3ccccc3s2)n1 |
| 164 to 166 | CNC(=O)Nc1cc(OC)ccc1Br |
| > 250 | O=C(c1ccc(-c2cc3cnc(Nc4cccc(Cl)c4)nc3[nH]2)cc1)N1CCOCC1 |
| 227 | O=C(O)COc1ccc(-c2ccc(=O)[nH]n2)cc1Cl |
| 240 to 242 | Cn1c(COc2ccc(CC3SC(=O)NC3=O)cc2)nc2ccc(O)nc21 (configuration not stated) |
| 217 to 219 | Cc1ccnc(C(=O)c2[nH]c3cc(Cl)ccc3c2NC(=O)C(C)(C)O)c1 |
| 134 to 135 | Fc1ccc(CC2C=CC(OCc3ccccc3)=C3N=C4CCCCC4=C32)cc1 (configuration not stated) |
| 131 to 132 | CN(C)CCNC(=O)N1CCC(S(=O)(=O)c2ccc(Cl)cc2)C1 (configuration not stated) |
| 153 to 156 | O=C(O)c1cccc(Oc2cccc(-c3nn(Cc4ccc(C(F)(F)P(=O)(O)O)c(F)c4)c(=Nc4ccc(Cl)c(Cl)c4)s3)c2)c1 |
| 259 to 261 | CC(=O)Nc1nc2c(Oc3cc(-c4ccc(C(F)(F)F)cc4NC(C)=O)ncn3)cccc2s1 |
| 232 to 234 | CCn1cc(C(=O)O)c(=O)cc1-c1ccc(OC)c(OC)c1 |
| 182 | Nc1cc(=O)n(Cc2ccc(Br)c(Br)c2)[nH]1 |
| 214 to 216 | NS(=O)(=O)c1cc(C(=O)O)cc(SCc2ccco2)c1Oc1ccccc1 |
| 141 to 142 | C[C@@H](CN1CCc2ccc3c(c21)CCO3)NC(=O)OC(C)(C)C |
| 83 to 85 | Clc1ccc2c(c1)oc1cc(OCCCBr)ccc12 |
| 132 | CC(C(=O)O)c1ccc2nc(-c3ccccc3)oc2c1 (configuration not stated) |
| 180 to 185 | CS(=O)(=O)c1ccc2nc(NC(=N)N)nc(-c3ccccc3)c2c1 |
| 154 to 156 | Fc1cc(F)c(CN2CCNc3ncc(I)cc32)cc1F |

The next lines start with the compound.

| Structure (SMILES) | melting point [°C] |
| --- | --- |
| OCC(O)Cc1c(OCc2ccccc2)ccc2ncccc12 (configuration not stated) | 160 to 162 |
| CC(=O)OC1(C(=O)CCl)CCC2C3CCC4=CC(=O)CCC4(C)C3CCC21C (configuration not stated) | 219 to 221 |
| Cc1ccc([N+](=O)[O-])c2c1CCC(C)O2 (configuration not stated) | 83 to 85 |
| CC(C)(C)OC(=O)N1CCN(c2ccc(N=C(N)c3cccs3)cc2)CC1 | 164 |
| OC1Cc2cccc(Br)c2C1 (configuration not stated) | 80 |
| CCOC(=O)CCCC(=NO)c1ccccc1 | 28 to 30 |
| O=C(Oc1ccccc1)N1CCN2C(=O)OC(Cc3ccccc3)(Cc3ccccc3)C2C1 (configuration not stated) | 140 to 141 |
| CNC(=C[N+](=O)[O-])NCCCSc1nccc(NC(N)=NCC(F)(F)F)n1 | 189 to 191 |
| O=C1c2ccccc2C(=O)N1CC(=O)N1c2ccccc2N(Cc2ccc(NCc3ccccc3)cc2)C(=O)[C@H]2CCC[C@H]21 (relative stereo) | 178 to 182 |
| c1cc(N2CCCN(c3ccc(-c4ccc5c(c4)OCO5)cn3)CC2)ncc1-c1ccc2c(c1)OCO2 | 235 to 237 |
| CC(=O)c1ccc(CBr)s1 | 58 to 59 |
| COc1ccc(C2(C#N)CCC(=O)CC2)cc1OC | 111 to 112 |
| CSC(SC)(SC)C(O)c1ccc(-n2cccc2)cc1 (configuration not stated) | 101 to 103 |
| OC(c1ccccc1)(c1ccc(C(F)(F)F)cc1)c1ncc[nH]1 (configuration not stated) | 174 to 176 |
| Cc1cc(C(C)(C)C)cc(C)c1SSc1c(C)cc(C(C)(C)C)cc1C | 127 to 128 |
| C#CCN(Cc1cn(C(C)(C)C)nn1)Cc1cn(C(C)(C)C)nn1 | 126 |
| CCOC(=O)c1c(C(=O)OC)c(O)c2cc(OC)c(OC)c(OC)c2c1-c1ccc(OC)c(OC)c1 | 157 to 159 |
| O=C1CCOc2c1ccc1c2OC(CN2CC=C(c3c[nH]c4ccccc34)CC2)CO1 (configuration not stated) | 210 |
| CCN1CCC(=O)C(C(c2ccccc2)c2ccccc2)C1 (configuration not stated) | 54 to 58 |
| Cc1[nH]c2cccc(/C=C/C(=O)OCc3ccccc3)c2c1Cc1cccnc1 | 180 to 182 |
| O=C(O)CCNC(=O)C(=Cc1cc(F)cc(F)c1)CS | 125 |
| Cc1ccc(O)c2c1C(C)CC2=O (configuration not stated) | 52 to 53 |

| Structure (SMILES) | melting point [°C] |
| --- | --- |
| CC(=O)NC=Cc1ccc(OC(C)=O)cc1 | 165 to 166 |
| COc1cc(C)c(C=CC(C)=CC=O)cc1C | 90 to 92 |
| O=C(CS)N[C@@H](CS)C(=O)O | 121 |
| CN(C)C=Nc1c(Cl)cc(N=Cc2ccc(C#N)cc2)cc1Cl | 169 to 170 |
| O=[N+]([O-])c1ccc(N2CCN(Cc3ccccc3)CC2)cc1 | 115 to 118 |
| COC(=O)c1cc(COC(C)=O)cc(-n2cccc2C#N)c1 | 85 to 86 |
| CC(C)[C@H](NC(=O)/C=C/c1cccnc1)C(=O)N[C@@H](Cc1ccccc1)[C@@H](O)[C@H](O)[C@H](Cc1ccccc1)NC(=O)[C@@H](NC(=O)/C=C/c1cccnc1)C(C)C | 285 to 289 |
| COc1ccc(CCc2ccccc2C2(OC)C=CC(C(N)=O)=C(O)C2)cc1OC (configuration not stated) | 146 to 148 |
| CN1CCC(c2cccc3ccc(O)cc23)CC1 | 144 to 146 |
| COc1cc(C=CCN(C)CCc2ccc(N=C(N)c3cccs3)cc2)cc(OC)c1O | 153 to 154 |
| CCOC(=O)C1CCc2c(C)c(O)c(C)c(C)c2O1 (configuration not stated) | 108 to 109 |
| CCCCCCCNc1cccc(O)c1 | 27 to 30 |
| CCOC(=O)/C=C/S(=O)(=O)c1ccc(C(C)(C)C)cc1 | 88 to 91 |
| COc1ccc(NC(=O)C(=O)N2CCC(Cc3ccccc3)CC2)cc1 | 144 to 146 |
| O=C(O)c1cc(N=C=S)cc(N=C=S)c1 | 125 to 127 |
| NC(=O)CC(NC(=O)C(CO)NC(=O)CNC(=O)CNC(=O)C1CCC(=O)N1)C(=O)NC(Cc1ccccc1)C(=O)NCCc1ccccc1 (configuration not stated) ([pGlu]GGSNF-NHPhenethyl; configuration not given here) | 209 to 211 |
| CC(C)CN1C(=O)[C@@H](CC(=O)O)N=C(c2ccccc2Cl)c2cc(Cl)ccc21 | 175 to 178 |
| CN1CCc2c(Br)sc(Br)c2C(c2ccccc2)C1 (configuration not stated) | 83 |
| COC(=O)CCc1ccc(OCc2cccc(-c3cccc(C(=O)O)c3)c2)cc1 | 180 to 185 |
| CCCCCCCCOc1ccc(-c2nc(-c3ccccc3)c(-c3ccccc3)n2CCCCCCCC(=O)O)cc1 | 114 to 115 |
| Cc1nc2ccc(NC3=NCCN3)c(Br)c2nc1C | 252 to 254 |
